Assay [1] concerns the target 3',5'-cyclic-AMP phosphodiesterase 4B (Homo sapiens) (UniProt Q07343). The assay is described as follows: Inhibition of recombinant His-tagged PDE4B expressed in Sf9 cells using cAMP as substrate at 30 uM preincubated for 15 mins measured after 1 hr by multilabel plate reader.
Assay [2] shares this target. Briefly: Inhibition of recombinant His-tagged PDE4B expressed in Sf9 cells using cAMP as substrate at 10 uM preincubated for 15 mins measured after 1 hr by multilabel plate reader.
Assay [3] has as its system RAW264.7. Briefly: Antiinflammatory activity in mouse RAW264.7 cells assessed as inhibition of LPS-induced TNFalpha challenge at 10 uM preincubated for 30 mins before LPS challenge by ELISA. It counts as functional.
Assay [4] deals with 3',5'-cyclic-AMP phosphodiesterase 4B (Homo sapiens) (UniProt Q07343). Briefly: Inhibition of recombinant His-tagged PDE4B expressed in Sf9 cells using cAMP as substrate at 1 uM preincubated for 15 mins measured after 1 hr by multilabel plate reader.
The target is the same in assay [5]. Briefly: Inhibition of recombinant His-tagged PDE4B expressed in Sf9 cells using cAMP as substrate at 0.3 uM preincubated for 15 mins measured after 1 hr by multilabel plate reader.
For assay [6] the target is unchanged. The assay is described as follows: Inhibition of recombinant His-tagged PDE4B expressed in Sf9 cells using cAMP as substrate at 3 uM preincubated for 15 mins measured after 1 hr by multilabel plate reader.
The test system of assay [7] is RAW264.7. Briefly: Antiinflammatory activity in mouse RAW264.7 cells assessed as inhibition of LPS-induced TNFalpha challenge at 30 uM preincubated for 30 mins before LPS challenge by ELISA. It counts as functional.

SMILES strings stand for the structures.

A word on the inhibition: it is how much of the control response was suppressed.

Sequence of 3',5'-cyclic-AMP phosphodiesterase 4B (Homo sapiens) (Q07343 whole entry): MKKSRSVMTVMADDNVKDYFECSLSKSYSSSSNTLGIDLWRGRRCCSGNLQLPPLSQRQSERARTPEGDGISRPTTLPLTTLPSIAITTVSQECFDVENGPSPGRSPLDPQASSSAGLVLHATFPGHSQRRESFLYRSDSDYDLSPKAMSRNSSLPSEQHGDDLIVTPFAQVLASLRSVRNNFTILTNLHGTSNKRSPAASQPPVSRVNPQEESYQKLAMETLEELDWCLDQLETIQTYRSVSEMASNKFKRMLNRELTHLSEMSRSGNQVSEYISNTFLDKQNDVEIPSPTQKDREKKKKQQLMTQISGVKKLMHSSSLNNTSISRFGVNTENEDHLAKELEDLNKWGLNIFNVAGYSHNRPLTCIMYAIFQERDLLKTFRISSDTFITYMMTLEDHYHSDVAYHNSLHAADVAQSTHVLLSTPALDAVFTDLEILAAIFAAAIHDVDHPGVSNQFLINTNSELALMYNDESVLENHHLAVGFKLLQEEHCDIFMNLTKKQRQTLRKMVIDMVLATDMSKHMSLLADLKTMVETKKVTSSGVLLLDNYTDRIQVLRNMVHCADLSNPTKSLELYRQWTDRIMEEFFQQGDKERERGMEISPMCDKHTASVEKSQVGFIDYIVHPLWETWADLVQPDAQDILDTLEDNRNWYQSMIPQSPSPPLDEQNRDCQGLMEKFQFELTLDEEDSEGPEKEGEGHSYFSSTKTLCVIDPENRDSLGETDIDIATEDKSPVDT

On to `CC1=CC(C)(C)N(CC#Cc2ccccc2Cl)c2cc(Oc3ccccc3)c(NS(C)(=O)=O)cc21`, for which the inhibition in assay [1] amounted to 40.3%.

For the compound `O=Cc1cc2ccccc2n(CC#Cc2ccccc2Cl)c1=O`, the inhibition in assay [1] amounted to 54.4%. The same measure, in the same setting: the value for `Cc1ccccc1C#CCn1c(=O)c(C=O)cc2ccccc21` was 45.5%. On to `COC(=O)c1ccccc1C#CCN1c2cc(Oc3ccccc3)c(NS(C)(=O)=O)cc2C(C)=CC1(C)C`, for which the inhibition was 23% in assay [2]; 11% in assay [4]; 33.1% in assay [1]; 10% in assay [5]; 16% in assay [6]. In addition, the inhibition at 10 µM with RAW264.7 [3] came out at 35%. Further, the inhibition at 30 µM with RAW264.7 [7] was determined as 47%. Consider `COc1ccc(C#CCn2c(=O)c(C=O)cc3ccccc32)cc1`, for which the inhibition in assay [1] was 22.6%.

For `O=Cc1cc2ccccc2n(CC#Cc2ccc(Cl)cc2)c1=O`, the inhibition in assay [1] worked out at 26.5%. Take `O=Cc1cc2ccccc2n(CC#Cc2cccc([N+](=O)[O-])c2)c1=O`: the inhibition in assay [1] amounted to 22.6%.

Consider `CC1=CC(C)(C)N(CC#Cc2ccc([N+](=O)[O-])cc2)c2cc(Oc3ccccc3)c(NS(C)(=O)=O)cc21`, for which the inhibition in assay [1] was found to be 35.1%. On the same count and under the same terms, the figure for `CC1=CC(C)(C)N(CC#Cc2ccccc2[N+](=O)[O-])c2cc(Oc3ccccc3)c(NS(C)(=O)=O)cc21` is 37.4%; for `O=Cc1cc2ccccc2n(CC#Cc2ccc([N+](=O)[O-])cc2)c1=O` it is 4.15%. For the compound `CC1=CC(C)(C)N(CC#Cc2cccc([N+](=O)[O-])c2)c2cc(Oc3ccccc3)c(NS(C)(=O)=O)cc21`, the inhibition in assay [1] was 41.6%.

Source of the values: ChEMBL document CHEMBL1914439, “Novel 1-alkynyl substituted 1,2-dihydroquinoline derivatives from nimesulide (and their 2-oxo analogues): a new strategy to identify inhibitors of PDE4B” (2011).
